One compound from patent US9012492B2, “Apocynin-lipoic acid conjugates and uses thereof” (priority 2011, dated 2015) can be followed below.

For one series, the system named is Sprague-Dawley rats. Nature of the series: Infarct volume after permanent (6 h) middle cerebral artery occlusion. The class given is in vivo, rat. Conditions: 0.1 or 1.0 mg/kg iv 30 min prior to 6 h permanent occlusion (no reperfusion). The text has this: The detailed methodology for permanent middle cerebral artery occlusion (MCAO) and transient (I/R) occlusion of the middle cerebral artery has been published previously.^46 Briefly, animals were placed in a David Kopf stereotaxic frame (Tujunga, Calif.), and the right middle cerebral artery (MCA) approached through a rostral-caudal incision of the skin and frontalis muscle at the approximate level of bregma. Blood flow through the MCA was impeded by the placement of surgical suture behind the MCA at three designated positions along the exposed vessel. […] The concentration of 0.1 mg/kg represents the optimal dose of the compound of Formula (Ia), as determined above, and 1.0 mg/kg represents a 10-fold higher concentration of the optimal dose, as the optimal dose of 0.1 mg/kg was not effective in producing neuroprotection. […] At the end of each experiment in which infarct volume was measured, animals were transcardially perfused with PBS (0.1 M; 200 ml), the brains were removed and sliced into 1-mm coronal sections using a rat brain matrix (Harvard Apparatus, Holliston, Mass.). […] Infarct volumes were calculated with the use of scanned digital images of each brain section. The infarct area for both sides of each brain section was calculated using a computer-assisted imaging system (Scion, Frederick, Md.). […]

Another series relates to N27 neuronal cells. Nature of the series: DNA fragmentation ELISA after hydrogen peroxide exposure of N27 neuronal cells. The class given is cell-based. The following applies: pretreatment 100 μM. The procedure:
Specifically, the effects of (Ia) on oxidative stress in N27 neuronal cells, a dopaminergic cell line were studied. […]
The cells were then lysed, and DNA fragmentation was determined by ELISA assay.

A short description of series [1]: Stability in methanolic solution. The class given is physicochemical. The following applies: stock 1 mg/mL in methanol.

Read-outs that look alike come from different tables or passages of the source.

`COc1cc(C(C)=O)ccc1OC(=O)CCCCC1CCSS1` (centres unmarked) [compound of Formula (Ia)]: the “neuroprotection (infarct volume) in permanent MCAO” value in the series with Sprague-Dawley rats is reported as “did not produce neuroprotection”. Further, in the series on N27 neuronal cells, the “DNA fragmentation induced by hydrogen peroxide reduced by” value is recorded as 73%. In the series on N27 neuronal cells (then hydrogen peroxide (1 mM), n = 4), the DNA cell fragmentation was 138 ± 20 percentage of control. Moreover, the “% Change with time” value (Un-treated plasma, 0 h) is 100.00%; the “% Change with time” value (Un-treated plasma, <1 min) is reported as 0.00%; the “% Change with time” value (plasma + Formic acid, 0 h) is given as 100.00%; the “% Change with time” value (plasma + Formic acid, 10 min) was determined as 2.00%; the “% Change with time” value (plasma + Formic acid, <1 min) was found to be 15.00%; the “% Change with time” value (plasma + Sodium fluoride, 0 h) amounted to 100.00%. The “% Change with time” value (plasma + Sodium fluoride, <1 min) is 2.00%. The “% remaining in spiked plasma sample” value (immediate extraction, no stabilizer) is approximately 0%. For the same compound, the “stability in biological matrix” value (rat/dog blood and plasma) is reported as “unstable”. Besides, the “time stabilized in plasma” value (with combination of DV and FA) is reported as “up to 4 h”. Moreover, the “stability in methanolic solution” value in series [1] is reported as “stable”.
